# Test results as given in patent publication US20050074834A1 (priority 2001, published 2005).
# “Also recorded” adds a separate entry of the source. No end group written: not given here.
# Experiments:
# chromatophores [1] = tested on: chromatophores
# erythrophores = assay type: cell-based
# [2] = tested on: Betta splendens erythrophores; assay type: cell-based
# chromatophores [3] = assay: cells; conditions: read-out: Threshold concentration PPM
# melanophores = assay type: cell-based
# fish chromatophores = assay type: cell-based
molecule,measurement,setting,value
"c1ccc2cc3c(ccc4ccccc43)cc2c1 [1,2-Benzanthracene]",Threshold concentration PPM,chromatophores [1],X (key: X=1 to 100 PPM; XX=100 to 1000 PPM)
same,Chromatophore response Erythrophores,erythrophores,Imp.
CNc1ccc2oc(C[C@H]3O[C@@]4(CC[C@H]3C)O[C@H]([C@H](C)C(=O)c3ccc[nH]3)[C@H](C)C[C@H]4C)nc2c1C(=O)O [A23187],Morphology Effect: Aggregation,[2],No
same,Morphology Effect: Dispersion,[2],No
c1cc2c3c(cccc3c1)CC2 [Acenapthene],Threshold concentration PPM,chromatophores [1],X (key: X=1 to 100 PPM; XX=100 to 1000 PPM)
same,Chromatophore response Erythrophores,erythrophores,Imp.
CC(=O)OCC[N+](C)(C)C [Acetylcholine],minimal effective concentration,chromatophores [3],1 to 100 µg/mL
Nc1ncnc2c1ncn2[C@@H]1O[C@H](CO)[C@@H](O)[C@H]1O [Adenosine],Chromatophore response (cell spans the chromatophore type columns),chromatophores [1],Disp.
same,minimal effective concentration,chromatophores [3],100 to 1000 µg/mL
[Ag] [Ag],Chromatophore response (cell spans the chromatophore type columns),chromatophores [1],Imp. (FS)
same,Threshold concentration PPT,chromatophores [1],X (key: X=1 PPT or higher)
N [Ammonium],Chromatophore response (cell spans the chromatophore type columns),chromatophores [1],Imp. (FS)
same,Threshold concentration PPM,chromatophores [1],XX (key: X=1 to 100 PPM; XX=100 to 1000 PPM)
CC(N)Cc1ccccc1 (stereo not shown) [Amphetamine],Chromatophore response (cell spans the chromatophore type columns),chromatophores [1],Aggr. (FS)
same,minimal effective concentration,chromatophores [3],1 to 100 µg/mL
CC(=O)OCOC(=O)CN(CC(=O)OCOC(C)=O)c1ccccc1OCCOc1ccccc1N(CC(=O)OCOC(C)=O)CC(=O)OCOC(C)=O [BAPTA/AM],Morphology Effect: Aggregation,[2],No
same,Morphology Effect: Dispersion,[2],Yes
same,erythrophore pigment response on addition,[2],pigment dispersion
COC(=O)C1=C(C)NC(C)=C([N+](=O)[O-])C1c1ccccc1C(F)(F)F (stereo not shown) [Bay K8644],erythrophore pigment response on direct application,[2],neither the aggregation nor dispersion of erythrophore pigment
C=C(C=O)C[C@@H]1C[C@H](O)[C@]2(C)O[C@@H]3C[C@@H]4O[C@@H]5C[C@]6(C)O[C@]7(C)CC[C@@H]8O[C@@H]9C[C@]%10(C)O[C@@H]%11C(C)=CC(=O)O[C@H]%11C[C@H]%10O[C@H]9C[C@@H](C)[C@H]8O[C@H]7C[C@H]6O[C@H]5C/C=C\[C@H]4O[C@H]3C[C@H]2O1 [Brevetoxin],Chromatophore response (cell spans the chromatophore type columns),chromatophores [1],Aggr. (FS)
same,Response time Hr.,chromatophores [1],X (key: X=1-6 hr; XX=6-24 hr)
same,Threshold concentration PPM,chromatophores [1],X (key: X=1 to 100 PPM; XX=100 to 1000 PPM)
"CCCCCCC(C)(C)c1ccc([C@@H]2C[C@H](O)CC[C@H]2CCCO)c(O)c1 [Cannabinoid CP-55940, CP-55940]",Chromatophore response (cell spans the chromatophore type columns),chromatophores [1],Disp. (FS)
COc1cc(CNC(=O)CCCC/C=C/C(C)C)ccc1O [Capsaicin],Chromatophore response Melanophores,melanophores,Hollow-
same,minimal effective concentration,chromatophores [3],1 to 100 µg/mL
COc1cc2c(c(OC)c1OC)-c1ccc(OC)c(=O)cc1[C@@H](NC(C)=O)CC2 [Colchicine],minimal effective concentration,chromatophores [3],100 to 1000 µg/mL
[Cu] [Cu],Chromatophore response (cell spans the chromatophore type columns),chromatophores [1],Imp. (FS)
same,Threshold concentration PPT,chromatophores [1],X (key: X=1 PPT or higher)
C=CC[C@@H](CC/C(C)=C/C=C/CC/C=C\[C@@H]1CSC([C@@H]2C[C@@H]2C)=N1)OC [Curacin A],Chromatophore response (cell spans the chromatophore type columns),chromatophores [1],Aggr. and Imp. (FS)
same,Response time Hr.,chromatophores [1],X (key: X=1-6 hr; XX=6-24 hr)
same,Threshold concentration PPM,chromatophores [1],X (key: X=1 to 100 PPM; XX=100 to 1000 PPM)
C=C1[C@@H](C)[C@H]2[C@H](Cc3ccccc3)NC(=O)[C@]23[C@H](OC(C)=O)/C=C/[C@@](C)(O)C(=O)[C@@H](C)C/C=C/[C@H]3[C@@H]1O [Cytochalasin D],Threshold concentration PPM,chromatophores [1],XX (key: X=1 to 100 PPM; XX=100 to 1000 PPM)
same,Chromatophore response Melanophores,melanophores,Imp.
CNCCCN1c2ccccc2CCc2ccccc21 [Desipramine],Chromatophore response (cell spans the chromatophore type columns),chromatophores [1],Aggr. (FS)
same,minimal effective concentration,chromatophores [3],1 to 100 µg/mL
NCCc1ccc(O)c(O)c1 [Dopamine],Chromatophore response (cell spans the chromatophore type columns),chromatophores [1],Aggr. (FS)
same,minimal effective concentration,chromatophores [3],100 to 1000 µg/mL
CCOP(=S)(Oc1ccc([N+](=O)[O-])cc1)c1ccccc1 (stereo not shown) [EPN],Response time Hr.,chromatophores [1],X (key: X=1-6 hr; XX=6-24 hr)
same,Threshold concentration PPM,chromatophores [1],XX (key: X=1 to 100 PPM; XX=100 to 1000 PPM)
c1ccc2c(c1)-c1cccc3cccc-2c13 [Fluoranthene],minimal effective concentration,chromatophores [3],1 to 100 µg/mL
C=O [Formaldehyde],minimal effective concentration,chromatophores [3],100 to 1000 µg/mL
O=S(=O)(NCCNC/C=C/c1ccc(Br)cc1)c1cccc2cnccc12 [H89],chromatophore response in the absence of forskolin,fish chromatophores,aggregate; also recorded: aggregation
same,chromatophore response in the presence of forskolin,fish chromatophores,continues to be responsive; also recorded: still results in cell aggregation
NCCc1c[nH]cn1 [Histamine],minimal effective concentration,chromatophores [3],100 to 1000 µg/mL
OO [Hydrogen peroxide],Chromatophore response (cell spans the chromatophore type columns),chromatophores [1],Imp. (FS)
same,minimal effective concentration,chromatophores [3],100 to 1000 µg/mL
C[C@H](CCC(=O)O)C[C@H](C)C[C@H](C)C(=O)/C=C(\O)[C@H](C)C[C@H](C)C/C=C/[C@@H](C)[C@@H](O)[C@@H](C)[C@@H](O)C[C@@H]1CC[C@@](C)([C@H]2CC[C@@](C)([C@@H](C)O)O2)O1 [Ionomycin],Morphology Effect: Aggregation,[2],Yes
same,Morphology Effect: Dispersion,[2],No
same,erythrophore pigment response on addition,[2],"slight, but sustained aggregation"
[Ni] [Ni],Chromatophore response (cell spans the chromatophore type columns),chromatophores [1],Imp. (FS)
same,Threshold concentration PPT,chromatophores [1],X (key: X=1 PPT or higher)
"O=S(=O)(F)Cc1ccccc1 [PMSF, phenylmethylsulfonyl fluoride]",Chromatophore response (cell spans the chromatophore type columns),chromatophores [1],Imp. (FS)
same,Threshold concentration PPM,chromatophores [1],X (key: X=1 to 100 PPM; XX=100 to 1000 PPM)
same,effect of PMSF on sensitivity to H89,fish chromatophores,heightens the sensitivity of cells to H89; also recorded: increased sensitivity to H89 inhibition
[Pb] [Pb],Chromatophore response (cell spans the chromatophore type columns),chromatophores [1],Imp. (FS)
same,Threshold concentration PPT,chromatophores [1],X (key: X=1 PPT or higher)
CN(C)CCC(c1ccccc1)c1ccccn1 (stereo not shown) [Pheniramine],minimal effective concentration,chromatophores [3],100 to 1000 µg/mL
CC(COc1ccccc1)N(CCCl)Cc1ccccc1 (stereo not shown) [Phenoxy-benzamine],Chromatophore response (cell spans the chromatophore type columns),chromatophores [1],Blocks norepinephrine
Cc1ccc(N(CC2=NCCN2)c2cccc(O)c2)cc1 [Phentolamine],Chromatophore response (cell spans the chromatophore type columns),chromatophores [1],Blocks norepinephrine
CNCCNS(=O)(=O)c1cccc2cnccc12 [Protein kinase inhibitor H-8],Threshold concentration PPM,chromatophores [1],XX (key: X=1 to 100 PPM; XX=100 to 1000 PPM)
same,Chromatophore response Melanophores,melanophores,Disp.
NCCNS(=O)(=O)c1cccc2cnccc12 [Protein kinase inhibitor H-9],Threshold concentration PPM,chromatophores [1],XX (key: X=1 to 100 PPM; XX=100 to 1000 PPM)
same,Chromatophore response Melanophores,melanophores,Disp.
COC(=O)[C@@]1(O)C[C@H]2O[C@]1(C)n1c3ccccc3c3c4c(c5c6ccccc6n2c5c31)C(=O)NC4 [Protein kinase inhibitor K252a],minimal effective concentration,chromatophores [3],1 to 100 µg/mL
c1cc2ccc3cccc4ccc(c1)c2c34 [Pyrene],minimal effective concentration,chromatophores [3],1 to 100 µg/mL
O=C(O)c1ccccc1O [Salicylate],Chromatophore response (cell spans the chromatophore type columns),chromatophores [1],Imp. (FS)
same,Threshold concentration PPM,chromatophores [1],XX (key: X=1 to 100 PPM; XX=100 to 1000 PPM)
NCCc1c[nH]c2ccc(O)cc12 [Serotonin],Chromatophore response (cell spans the chromatophore type columns),chromatophores [1],Partial Aggr.
same,minimal effective concentration,chromatophores [3],1 to 100 µg/mL
C/C=C(/C)C(=O)O[C@H]1C(C)=C2[C@H]([C@@H]1OC(=O)CCCCCCC)[C@@](C)(OC(C)=O)C[C@H](OC(=O)CCC)[C@@]1(O)[C@H]2OC(=O)[C@@]1(C)O [Thapsigargin],Morphology Effect: Aggregation,[2],Yes
same,Morphology Effect: Dispersion,[2],No
CCOC(=O)c1cccc(N)c1 [Tricaine],Threshold concentration PPM,chromatophores [1],X (key: X=1 to 100 PPM; XX=100 to 1000 PPM)
same,Chromatophore response Melanophores,melanophores,Disp.
COc1ccc(CCN(C)CCCC(C#N)(c2ccc(OC)c(OC)c2)C(C)C)cc1OC (stereo not shown) [Verapamil],Threshold concentration PPB,chromatophores [1],X (key: X=1 to 100 PPB; XX=100 to 1000 PPB)
same,Morphology Effect: Aggregation,[2],No
same,Morphology Effect: Dispersion,[2],Yes
same,"erythrophore pigment dispersion response, control",[2],failed to induce pigment dispersion response
same,erythrophore pigment response after norepinephrine pre-treatment,[2],produces pigment dispersion
same,erythrophore response to verapamil,[2],rapid dispersion; also recorded: disperse almost as completely as possible; also recorded: pigment dispersion; also recorded: larger dispersion
COC(=O)[C@@H]1[C@H]2C[C@H]3c4[nH]c5ccccc5c4CCN3C[C@@H]2CC[C@@H]1O [Yohimbine],Chromatophore response (cell spans the chromatophore type columns),chromatophores [1],Blocks norepinephrine
c1ccc(C2CC2)c(OCC2=NCCN2)c1 [cirazoline],chromatophore response after forskolin and PMSF,fish chromatophores,no aggregation occurred
same,chromatophore response in the absence of forskolin,fish chromatophores,aggregate; also recorded: aggregation
same,chromatophore response in the presence of forskolin,fish chromatophores,unresponsive; also recorded: not detectable
MCH,Threshold concentration PPB,chromatophores [1],X (key: X=1 to 100 PPB; XX=100 to 1000 PPB)
same,Chromatophore response Melanophores,melanophores,Aggr.
"Substance P (RPKPQQFFGLM; ends and bridges not checked; UniProt P20366 58-68, looked up)",Chromatophore response (cell spans the chromatophore type columns),chromatophores [1],Hue changes (FS)
μ-Conotoxin GVIA,Morphology Effect: Aggregation,[2],No
same,Morphology Effect: Dispersion,[2],No
